Columns and labels:
[1] = test system: ICR mice with ischemic cerebrovascular injury; experiment: MCAO ischemic cerebrovascular injury model, Zea longa behavioral score; assay type: in vivo; set-up: key: Zea longa: 0 = no neurological deficit, 4 = no spontaneous walking; details: 10 mg/kg intraperitoneal, Zea longa 5-point score
Procedure: Experimental animals: healthy male Institute of Cancer Research (ICR) mice, weighing 18-20 grams, purchased from Shanghai SLAC Laboratory Animal Co. Ltd, with quality certificate No. (SCXK (Shanghai) 2007-0005), and kept in clean animal houses.
Mouse model: an ischemic cerebrovascular injury model was prepared by a middle cerebral artery occlusion (MCAO) method to verify therapeutic effect of the cyclic dinucleotide metal compounds on ischemic cerebrovascular diseases in the experimental animals.
Experimental method: the ICR mice were anesthetized with 10 wt. % of chloral hydrate by intraperitoneal injection, a mid-cervical incision was made to isolate and ligate a proximal segment, a carotid artery and a branch vessel of a right common carotid artery. A right internal carotid artery was isolated, a pterygoid artery was isolated down along the right internal carotid artery followed by root ligation. A wire was prepared on the proximal segment, and an arterial clip was placed on a distal segment. An incision was made at a branch of the right common carotid artery, and a nylon wire was tied in. A monofilament entered the internal carotid artery, a cranium to an anterior cerebral artery to block all sources of blood flow in a middle cerebral artery. The arterial clip was removed, and the wire prepared on the proximal segment was tied in followed by skin suture. The experimental animals were subjected to cage culture after operation. 2 h after the ischemia, the experimental animals were subjected to abdominal administration by injection, and the nylon wire was removed for reperfusion. 8 h after the reperfusion, the experimental animals were subjected to re-administration. After the operation, behavioral score was performed using a single-blind method with reference to the Zea longa 5-point scoring system, which was shown as follows: 0 point, normal performance with no neurological deficits; 1 point, contralateral forepaws could not fully extend; 2 points, circling to the opposite side when walking; 3 points, falling to the opposite side; 4 points, no spontaneous walking and loss of consciousness.
In the experiment, the ICR mice were divided into 7 groups (10 mice in each group). The 7 groups were listed as follows: A: AD model group, as a negative control group (administration: normal saline); B: cGAMP group, as a positive control group (administration: cyclic dinucleotide); C: [Li2(cGAMP)] group (administration: lithium cyclic dinucleotide prepared in Example 1); D: [Mg(cGAMP)] group (administration: magnesium cyclic dinucleotide prepared in Example 2); E: [Zn(cGAMP)] group (administration: zinc cyclic dinucleotide prepared in Example 5); F: [Mn(cGAMP)] group (administration: manganese cyclic dinucleotide prepared in Example 3); G: [Fe(cGAMP)] group (administration: ferrous cyclic dinucleotide prepared in Example 4); where a preparation method for administration in groups C-G were as follows. Powders prepared in the groups C-G were prepared to solutions of required concentration with normal saline. The administration dosage of every group was 10 mg/kg. And the ICR mice were administered by intraperitoneal injection. The ICR mice were administered once after 2 h of ischemia, then the nylon wire was removed for reperfusion. 8 h after the reperfusion, the ICR mice were administered once. After 24 h, the ICR mice were administered once a day for 7 consecutive days.

IRI mice (male SD mice) = experiment: Cerebral ischemia-reperfusion injury (IRI) model, TTC dyeing; assay type: in vivo; details: 2 h ischemia, 24 h reperfusion; caudal vein injection 5 mg/kg (Edaravone 6 mg/kg) after 30 min ischemia
Procedure: Experimental animals: healthy male mice, weighing 280-300 grams, purchased from Shanghai SLAC Laboratory Animal Co. Ltd, with quality certificate No. (SCXK (Shanghai) 2007-0005), and kept in clean animal houses.
Establishment of a mouse cerebral ischemia model of mice and experimental method: 280-300 grams of male […] mice were selected for experiments. The male SD mice were subjected to fasting without water deprivation for 12 h before operation followed by weighing, numbering and random grouping. The male SD mice were anesthetized by intraperitoneal injection of 10 wt. % chloral hydrate at a dosage of 0.3 mL/100 g. After the male SD mice had no pain reflexes, they were subjected to neck skin preparation followed by being fixed on a dissecting table in supine position. After neck skins were disinfected with sterilized cotton balls, about 1 cm of the neck skins were cut in mid-cervical to expose subcutaneous tissues, and subcutaneous fat and the fascia were bluntly plucked with curved tweezers to expose neck muscle groups. The common carotid arteries and their upwardly internal and external carotid branches were visualized by opening the digastric muscle. The external, internal, and common carotid arteries were carefully dissected, and a thin wire was threaded under each of the three arteries, and homemade plastic spacers were placed under the common carotid arteries. The external carotid arteries and proximal ends of the common carotid arteries were ligated. After the internal common carotid arteries were clamped by arterial clips, the common carotid arteries were stuck into with homemade curved hooks followed by picking up and leading in monofilaments. The spacers were removed, and the monofilaments were gently pushed into the internal common carotid arteries and craniums. […] At this time, blood supplies of the middle cerebral arteries from the anterior cerebral arteries were blocked. Thin wires under the internal carotid arteries were ligated to secure the monofilaments to prevent the monofilaments from retreating. Excess thin wires were cut, penicillin was applied to wounds to prevent infection. The male SD mice were sutured and placed under a warm lamp to keep warm. Timing was performed when blood flows of the middle cerebral arteries were blocked by the monofilaments. After 2 hours, the monofilaments were gently pulled out and the black marks were seen, then reperfusion can be achieved.
Triphenyl tetrazolium chloride (TTC) dyeing: After being injured by 2 h cerebral ischemia and 24 h reperfusion, the male SD mice were anesthetized with 0.3 mL/100 g dosage of 10 wt. % of chloral hydrate by intraperitoneal injection and subjected to abdominal aorta bleeding to reduce influence of blood in brains. Then whole heads of the male SD mice were removed immediately after decapitating, and washed with normal saline followed by being promptly put into a −20° C. refrigerator to freeze for 20 min. Frozen brains were collected and subjected to coronal sections, each 2 mm of thickness, by a blade. Then the coronal sections were subjected to dark dyeing in a 2 wt. % of TTC solution for 20 min and fixing in a 4 wt. % of polyformaldehyde solution for 6 h followed by photographing. Then, Photoshop software was used to define area and calculate, and a formula was represented as a percentage of cerebral ischemic area=a total area of white area/a total area of ischemic hemisphere×100%.
Drug preparation and experimental grouping: Edaravone was used as a positive control drug, and an Edaravone injection was 30 mg/20 mL. A single dosage for each of the male SD mice was 0.4 mL/100 g, that is, 6 mg/kg. The cyclic dinucleotide metal compounds prepared in Examples 1-5 were prepared into […] injection drugs with the normal saline. Each of the male SD mice was subjected to caudal vein injection with 0.4 mL/100 g dosage of drugs, that is, 5 mg/kg. The male SD mice were divided into 8 groups (10 mice in each group). […]

SMILES	Score (7 h after operation) [1]	Score (24 h after operation) [1]	Average value of percentage of cerebral ischemic area (IRI mice (male SD mice)) [%]
Nc1nc2c(ncn2C2OC3COP(=O)([O-])OC4C(COP(=O)([O-])OC2C3O)OC(n2cnc3c(N)ncnc32)C4O)c(=O)[nH]1.[Fe+2] (stereo not drawn) [[Fe(cGAMP)], ferrous cyclic dinucleotide]	1.41 ± 0.29	1.67 ± 0.35	26.78
Nc1nc2c(ncn2[C@@H]2O[C@@H]3COP(=O)([O-])O[C@H]4[C@@H](O)[C@H](n5cnc6c(N)ncnc65)O[C@@H]4COP(=O)([O-])O[C@@H]2[C@@H]3O)c(=O)[nH]1.[Li+].[Li+] [[Li2(cGAMP)], lithium cyclic dinucleotide]	1.49 ± 0.26	1.82 ± 0.19	25.25
Nc1nc2c(ncn2[C@@H]2O[C@@H]3COP(=O)([O-])O[C@H]4[C@@H](O)[C@H](n5cnc6c(N)ncnc65)O[C@@H]4COP(=O)([O-])O[C@@H]2[C@@H]3O)c(=O)[nH]1.[Mg+2] [[Mg(cGAMP)], magnesium cyclic dinucleotide]	1.09 ± 0.18	1.18 ± 0.24	18.16
Nc1nc2c(ncn2C2OC3COP(=O)([O-])OC4C(COP(=O)([O-])OC2C3O)OC(n2cnc3c(N)ncnc32)C4O)c(=O)[nH]1.[Mn+2] (stereo not drawn) [[Mn(cGAMP)], manganese cyclic dinucleotide]	1.38 ± 0.27	1.62 ± 0.39	25.56
Nc1nc2c(ncn2[C@@H]2O[C@@H]3COP(=O)([O-])O[C@H]4[C@@H](O)[C@H](n5cnc6c(N)ncnc65)O[C@@H]4COP(=O)([O-])O[C@@H]2[C@@H]3O)c(=O)[nH]1.[Zn+2] [[Zn(cGAMP)], zinc cyclic dinucleotide]	1.31 ± 0.15	1.57 ± 0.38	23.52
Nc1nc2c(ncn2[C@@H]2O[C@@H]3COP(=O)(O)O[C@H]4[C@@H](O)[C@H](n5cnc6c(N)ncnc65)O[C@@H]4COP(=O)(O)O[C@@H]2[C@@H]3O)c(=O)[nH]1 [cGAMP, 2′3′-cGAMP, reference compound]	1.67 ± 0.41	2.15 ± 0.32	26.86

— patent US20240317792A1, “CYCLIC DINUCLEOTIDE METAL COMPOUND, AND PREPARATION AND APPLICATION THEREOF” (HANGZHOU XINGAO BIOTECHNOLOGY CO., LTD., priority 2022, published 2024)
